In test [1] the target is T1, Dual specificity protein kinase TTK (Homo sapiens) (UniProt P33981).
T1 sequence (whole entry): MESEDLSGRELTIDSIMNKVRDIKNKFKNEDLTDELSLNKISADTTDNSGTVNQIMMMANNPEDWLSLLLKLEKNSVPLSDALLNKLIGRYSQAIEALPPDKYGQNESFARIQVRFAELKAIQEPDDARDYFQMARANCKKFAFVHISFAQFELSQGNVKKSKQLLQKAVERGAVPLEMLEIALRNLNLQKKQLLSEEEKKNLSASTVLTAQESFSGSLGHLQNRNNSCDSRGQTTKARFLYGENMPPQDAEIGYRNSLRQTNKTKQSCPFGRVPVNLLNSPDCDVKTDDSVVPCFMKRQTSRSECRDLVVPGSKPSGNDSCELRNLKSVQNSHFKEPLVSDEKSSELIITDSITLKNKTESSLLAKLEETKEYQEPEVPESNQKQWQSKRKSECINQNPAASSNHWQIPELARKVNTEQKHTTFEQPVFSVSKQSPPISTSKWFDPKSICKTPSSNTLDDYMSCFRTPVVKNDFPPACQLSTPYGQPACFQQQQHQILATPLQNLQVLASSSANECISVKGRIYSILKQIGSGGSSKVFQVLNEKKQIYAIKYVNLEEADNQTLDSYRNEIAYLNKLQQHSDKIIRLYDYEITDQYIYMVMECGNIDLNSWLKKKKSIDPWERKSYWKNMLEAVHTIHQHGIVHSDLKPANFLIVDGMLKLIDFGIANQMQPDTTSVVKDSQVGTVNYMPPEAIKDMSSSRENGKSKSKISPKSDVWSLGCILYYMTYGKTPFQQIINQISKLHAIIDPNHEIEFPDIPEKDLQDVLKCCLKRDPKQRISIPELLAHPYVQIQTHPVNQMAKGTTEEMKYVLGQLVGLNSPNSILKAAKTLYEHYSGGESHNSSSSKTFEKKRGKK
The experiment in a line: Selectivity interaction (LanthaScreen Eu Kinase Binding Assay) EUB0001632a TTK. Particulars: at 10 µM. (TR-FRET usually uses a lanthanide donor and a delayed reading to cut background.)

The target of test [2] is T2, Ephrin type-B receptor 2 (Homo sapiens) (UniProt P29323).
T2 sequence (whole entry): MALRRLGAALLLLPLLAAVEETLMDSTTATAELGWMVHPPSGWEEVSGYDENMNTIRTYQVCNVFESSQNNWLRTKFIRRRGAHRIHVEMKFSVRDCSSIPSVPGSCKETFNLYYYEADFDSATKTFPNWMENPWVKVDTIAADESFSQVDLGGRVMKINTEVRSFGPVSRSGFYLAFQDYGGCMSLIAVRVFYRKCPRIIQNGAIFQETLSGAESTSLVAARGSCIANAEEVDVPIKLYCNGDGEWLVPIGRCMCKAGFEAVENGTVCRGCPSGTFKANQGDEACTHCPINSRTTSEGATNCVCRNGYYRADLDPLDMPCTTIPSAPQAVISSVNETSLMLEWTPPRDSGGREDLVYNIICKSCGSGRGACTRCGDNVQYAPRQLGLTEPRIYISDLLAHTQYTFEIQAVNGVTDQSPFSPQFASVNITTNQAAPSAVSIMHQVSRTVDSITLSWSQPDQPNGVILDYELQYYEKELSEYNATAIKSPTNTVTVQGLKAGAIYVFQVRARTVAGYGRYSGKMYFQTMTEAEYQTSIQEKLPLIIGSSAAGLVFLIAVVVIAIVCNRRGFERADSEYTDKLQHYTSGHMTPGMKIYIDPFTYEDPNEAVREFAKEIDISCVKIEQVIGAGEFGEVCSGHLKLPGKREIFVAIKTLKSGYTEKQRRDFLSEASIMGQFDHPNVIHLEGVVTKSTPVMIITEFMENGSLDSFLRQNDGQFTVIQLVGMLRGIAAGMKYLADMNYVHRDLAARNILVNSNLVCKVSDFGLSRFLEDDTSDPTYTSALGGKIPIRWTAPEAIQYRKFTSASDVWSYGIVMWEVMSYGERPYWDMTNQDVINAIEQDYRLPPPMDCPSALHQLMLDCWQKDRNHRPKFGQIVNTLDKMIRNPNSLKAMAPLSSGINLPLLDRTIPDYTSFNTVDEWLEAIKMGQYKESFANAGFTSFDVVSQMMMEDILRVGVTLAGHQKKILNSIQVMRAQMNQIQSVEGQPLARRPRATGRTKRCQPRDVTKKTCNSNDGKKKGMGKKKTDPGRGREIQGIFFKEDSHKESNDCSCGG
Conditions: at 10 µM.

Test [3] addresses Macrophage-stimulating protein receptor (Homo sapiens, UniProt Q04912). The experiment in a line: Selectivity interaction (KinomeScan (DiscoverX)) EUB0000695a MST1R. Particulars: at 100 nM.
The target of test [4] is T3, Serine/threonine-protein kinase 17A (Homo sapiens) (UniProt Q9UEE5).
T3 sequence (whole entry): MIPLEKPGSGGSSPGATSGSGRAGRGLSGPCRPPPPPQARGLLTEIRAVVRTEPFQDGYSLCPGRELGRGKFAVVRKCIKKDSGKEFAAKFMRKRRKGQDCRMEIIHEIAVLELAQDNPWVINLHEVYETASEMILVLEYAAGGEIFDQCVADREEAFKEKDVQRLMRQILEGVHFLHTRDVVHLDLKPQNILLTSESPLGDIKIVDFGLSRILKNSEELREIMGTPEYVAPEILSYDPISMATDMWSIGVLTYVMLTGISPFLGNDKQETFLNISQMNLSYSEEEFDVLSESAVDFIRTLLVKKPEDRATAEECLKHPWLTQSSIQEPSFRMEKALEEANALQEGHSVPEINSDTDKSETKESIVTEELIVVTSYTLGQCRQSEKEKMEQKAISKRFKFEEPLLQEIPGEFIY
The experiment in a line: Selectivity interaction (Kinase panel (DSF assay)) EUB0001559a STK17A.

Test [5] deals with T4, Testis-specific serine/threonine-protein kinase 2 (Homo sapiens) (UniProt Q96PF2).
T4 sequence (whole entry): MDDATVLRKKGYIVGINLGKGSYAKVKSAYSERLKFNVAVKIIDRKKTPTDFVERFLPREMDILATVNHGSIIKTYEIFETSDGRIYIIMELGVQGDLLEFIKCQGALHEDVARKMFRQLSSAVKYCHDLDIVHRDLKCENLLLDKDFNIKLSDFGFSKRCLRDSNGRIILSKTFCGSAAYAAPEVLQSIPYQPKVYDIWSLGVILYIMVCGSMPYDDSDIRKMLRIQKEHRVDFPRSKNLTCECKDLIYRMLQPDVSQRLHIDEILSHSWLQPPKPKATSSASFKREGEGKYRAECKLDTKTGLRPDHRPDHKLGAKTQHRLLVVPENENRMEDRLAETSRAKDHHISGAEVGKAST
The test is described as follows: Selectivity interaction (Upstate Kinase Profiler service (Millipore)) EUB0000056c TSSK2. Particulars: at 1 µM.

Macrophage-stimulating protein receptor, sequence (Q04912 25-304 limits assumed): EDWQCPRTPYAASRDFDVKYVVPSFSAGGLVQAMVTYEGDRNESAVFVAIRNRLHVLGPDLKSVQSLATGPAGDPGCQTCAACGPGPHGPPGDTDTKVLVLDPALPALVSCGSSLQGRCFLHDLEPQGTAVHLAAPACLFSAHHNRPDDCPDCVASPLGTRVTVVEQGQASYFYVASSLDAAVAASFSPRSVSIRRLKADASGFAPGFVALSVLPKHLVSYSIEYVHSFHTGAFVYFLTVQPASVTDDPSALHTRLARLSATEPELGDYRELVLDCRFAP
Macrophage-stimulating protein receptor, sequence (Q04912 310-1400 limits assumed): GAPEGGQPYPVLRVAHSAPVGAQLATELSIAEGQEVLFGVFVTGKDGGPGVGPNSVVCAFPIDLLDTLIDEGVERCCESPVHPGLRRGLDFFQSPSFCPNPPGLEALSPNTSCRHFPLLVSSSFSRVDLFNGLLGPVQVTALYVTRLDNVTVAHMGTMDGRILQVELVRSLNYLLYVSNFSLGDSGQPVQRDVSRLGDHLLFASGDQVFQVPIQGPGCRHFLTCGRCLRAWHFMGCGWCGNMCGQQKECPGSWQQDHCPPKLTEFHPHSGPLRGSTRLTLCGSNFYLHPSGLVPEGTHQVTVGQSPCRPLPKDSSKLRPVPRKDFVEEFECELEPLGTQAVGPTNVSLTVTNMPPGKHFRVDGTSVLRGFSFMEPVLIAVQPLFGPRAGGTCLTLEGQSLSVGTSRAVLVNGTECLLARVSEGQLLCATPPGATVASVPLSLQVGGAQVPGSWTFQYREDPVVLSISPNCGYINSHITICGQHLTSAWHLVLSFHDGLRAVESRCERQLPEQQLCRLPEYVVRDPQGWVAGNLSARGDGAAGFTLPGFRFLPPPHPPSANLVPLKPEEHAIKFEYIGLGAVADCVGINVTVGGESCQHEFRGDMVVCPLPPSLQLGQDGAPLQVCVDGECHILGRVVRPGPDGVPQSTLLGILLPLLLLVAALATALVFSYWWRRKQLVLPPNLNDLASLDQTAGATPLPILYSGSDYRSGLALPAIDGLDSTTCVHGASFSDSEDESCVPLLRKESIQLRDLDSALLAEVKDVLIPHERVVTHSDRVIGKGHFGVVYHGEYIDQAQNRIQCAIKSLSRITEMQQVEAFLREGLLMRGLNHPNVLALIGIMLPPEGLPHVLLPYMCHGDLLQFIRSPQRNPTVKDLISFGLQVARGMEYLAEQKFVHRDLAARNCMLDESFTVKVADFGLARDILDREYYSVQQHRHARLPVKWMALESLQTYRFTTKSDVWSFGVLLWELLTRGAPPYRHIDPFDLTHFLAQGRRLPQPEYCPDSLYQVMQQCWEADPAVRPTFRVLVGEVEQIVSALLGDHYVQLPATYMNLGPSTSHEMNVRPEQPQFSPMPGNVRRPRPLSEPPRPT

For the compound `Cn1cc(-n2cnc3c(NCc4nc5cc(Cl)c(Cl)cc5[nH]4)nc(N4CCOCC4)nc32)cn1`, the % of inhibition in test [1] is -54.1%.

Regarding `CCN(CC)CCCCNc1ncc2cc(-c3cc(OC)cc(OC)c3)c(NC(=O)NC(C)(C)C)nc2n1`, in test [2], the % of control came to 100%.

`Cc1cc(F)c(C(=O)Nc2cccc(-c3nncn3C(C)C)n2)cc1-n1cnc(C2CC2)c1`: in test [3], the % of control worked out at 100%.

As to `CN(C(=O)c1cnn2cccnc12)c1cc2c(cc1N1CCOCC1)C(=O)N(C[C@@H](F)C(C)(C)O)C2`, the dTM in test [4] is -0.1 K.

As to `Cc1ccc(-c2ccc3c(ccc4sc5c(c43)NC[C@@H](C)NC5=O)n2)cn1`, the % of inhibition in test [5] was 4%.

For the origin of these results see ChEMBL document CHEMBL5465560, “Selectivity Literature for EUbOPEN Chemogenomic Library” (2024).
